Measurements published in patent US11260054B2, “Methods of treatment of cancer” (Pano Therapeutics, Inc., priority 2018, dated 2022).
Where two headings read alike, the source gives them in different places.

Legend:
HTC116 Cell Line = assay: Colorectal cancer cell survival assay (CellTiter-Glo); type: cell-based; conditions: 72 hrs incubation
Description: HTC116 cells were grown overnight at 37° C., 5% CO2. Cells were then incubated for 72 hrs in humidified incubator at 37° C. and 5% CO2 with 5 m, AA6, metformin, S1QEL 1.1, or cisplatin at concentrations ranging from 100 μM-50 nM. Each condition was done in triplicate, and the structures of the compounds were not known to the experimenters. After the incubation, cells were lysed with CellTiter-Glo® Luminescent Cell Viability Assay reagent (Promega) and luminescence was read using an Envision plate reader.
The IC50s of 5 m, AA6, and cisplatin were similar with 5 m and AA6 having slightly lower IC50s. Metformin and S1Qel 1.1 had dramatically larger IC50s than 5 m, AA6, or cisplatin. Cell viability was plotted with GraphPad Prism version 5 and the IC50 was calculated for each compound. The graphical curves were fitted using a nonlinear regression model with a sigmoidal dose response.

PANC-1 Cell Line = assay: Pancreatic cancer cell survival assay, PANC-1 (CellTiter-Glo); type: cell-based; conditions: 72 hrs incubation, read-out: Absolute IC50
Description: (§1) PANC-1 and MiaPaCa-2 were grown overnight at 37° C., 5% CO2 and 95% humidity. PANC-1 was grown in DMEM+10% FBS and MIA PaCa-2 was grown in DMEM+10% FBS+2.5% H. Cells from each cell line were then incubated for 72 hrs in humidified incubator at 37° C. and 5% CO2 with 5 m, AA6, metformin, or cisplatin at concentrations ranging from 100 μM-50 nM. Each condition was done in triplicate, and the structures of the compounds were not known to the experimenters. After the incubation, cells were lysed with CellTiter-Glo® Luminescent Cell Viability Assay reagent (Promega) and luminescence was read using an EnVision plate reader (PerkinElmer). Cell viability was plotted with GraphPad Prism version 5 and the IC50 was calculated for each compound with each cell line. The graphical curves were fitted using a nonlinear regression model with a sigmoidal dose response.

MiaPaCa-2 Cell Line = assay: Pancreatic cancer cell survival assay, MiaPaCa-2 (CellTiter-Glo); type: cell-based; conditions: 72 hrs incubation, read-out: Absolute IC50
Description: as §1

HCT116 cells = assay: Hypoxic cancer cell survival assay, normoxic vs hypoxic (CellTiter-Glo); type: cell-based; conditions: for IC50: 72 hrs, read-out: Absolute IC50
Description: HCT116 cells were cultured in an atmosphere of 37° C., 5% CO2, 95% humidity, and with either 1% O2 (hypoxic) or 20% O2 (normoxic). No antibiotics were used in the cell culturing. HeLa cells were grown in parallel and samples were taken after 48 h and 72 h to confirm Hypoxia-inducible factor-1α (HIF-1α) expression by western blot.
HCT116 cells were then seeded on 6-well plates and incubated at 37° C., 5% CO2, and 95% humidity overnight. Cells previously cultured under hypoxic conditions were again incubated with 1% O2, and cells previously cultured under normoxic conditions were again incubated with 20% O2.
as §1, with “Hypoxic” for “PANC-1”, “normoxic cells” for “MiaPaCa-2 were grown overnight at 37° C., 5% CO2 and 95% humidity. PANC-1 was grown in DMEM+10% FBS and MIA PaCa-2 was grown in DMEM+10% FBS+2.5% H. Cells from each cell line”, “C., 5% CO2, 95% humidity,” for “C.”, “either 1% O2 (hypoxic) or 20% O2 (normoxic)” for “5% CO2”, “1 mM-50” for “100 μM-50”

[1] = Pharmacokinetic parameters in mice, IV and oral; type: in vivo, BALB/c mice; conditions: for Vd: BALB/c, iv
Description: Fed BALB/c mice were administered either 2 mg/kg of 5 m intravenously via the tail vein or 10 mg/kg of 5 m orally. For both conditions, 5 m was dissolved in 10% DMSO/50% PEG400/40% Water. Blood was sampled at various timepoints after the compound was administered and was analyzed using AB Sciex API 4000 LC/MS/MS in positive ion mode.

[2] = HCT116, hypoxic conditions (1% O2)
[3] = mouse, blood, IV, 2 mg/kg, fed BALB/c mice, mean N = 3
[4] = mouse, blood, oral, 10 mg/kg, fed BALB/c mice, mean N = 3
[5] = Homo sapiens, HCT-116, 72 h, HCT116, hypoxic conditions (1% O2)

N.N.[Cl][Pt][Cl] [Cisplatin, reference compound]
IC50 (HTC116 Cell Line): 4.3 µM | IC50 (PANC-1 Cell Line; listed as cisplatin): 12.2 µM | IC50 (PANC-1 Cell Line): 14.2 µM | IC50 (MiaPaCa-2 Cell Line; listed as cisplatin): 14.2 µM | IC50 (MiaPaCa-2 Cell Line): 12.2 µM

N/C(=N\C(=O)c1nc(Cl)c(NCc2ccc(I)cc2)nc1N)NCCCCc1ccccc1 [5m, (E)-3-amino-N-(amino((4-phenylbutyl)amino)methylene)-6-chloro-5-((4-iodobenzyl)amino)pyrazine-2-carboxamide]
IC50 (HTC116 Cell Line): 3.2 µM | IC50 (PANC-1 Cell Line): 4.7 µM | IC50 (PANC-1 Cell Line; Homo sapiens, PANC-1, 72 h): < 6 µM | IC50 (MiaPaCa-2 Cell Line): 4.3 µM | IC50 (MiaPaCa-2 Cell Line; Homo sapiens, MIA PaCa-2, 72 h): < 6 µM | IC50 (HCT116 cells; [2]): 1.7 µM | IC50 (HCT116 cells; HCT116, normoxic conditions (20% O2)): 0.7 µM | apparent abnormal symptoms or toxicity during the assay ([1]; 2 mg/kg intravenously or 10 mg/kg orally, BALB/c mice): did not result in any apparent abnormal symptoms or toxicity | Vd ([1]; mouse, blood, 2 mg/kg, IV, 2 mg/kg, fed BALB/c mice, mean N = 3, read-out: Vss): 9.41 L/kg | Vd ([1]; mouse, blood, 2 mg/kg, IV, 2 mg/kg, fed BALB/c mice, mean N = 3, read-out: Vz): 17.5 L/kg | AUC Extr ([1]; IV, 2 mg/kg, fed BALB/c mice, mean N = 3): 2.47% | half-life ([1]; mouse, blood, IV, 2 mg/kg via tail vein, fed BALB/c mice, mean N = 3): 5.3 h | AUC(0-inf) [1, 3]: 871 ng·h/mL | AUC(0-t) [1, 3]: 849 ng·h/mL | C0 [1, 3]: 3870 ng/mL | MRT inf [1, 3]: 4.1 h | clearance [1, 3]: 38.4 mL/min/kg | AUC(0-inf) [1, 4]: 41.5 ng·h/mL | AUC(0-t) [1, 4]: 32.8 ng·h/mL | CL/F [1, 4]: 4030 mL/min/kg | Cmax [1, 4]: 18.3 ng/mL | half-life [1, 4]: 3.62 h | Vd/F ([1]; mouse, blood, oral, 10 mg/kg, fed BALB/c mice, mean N = 3, read-out: Vz/F): 1270 L/kg | F ([1]; oral 10 mg/kg vs IV 2 mg/kg, fed BALB/c mice, mean N = 3): 0.773%

CN(CCCCCCc1ccccc1)CCCCNC(=O)c1nc(Cl)c(NCc2ccc(Cl)cc2)nc1N [AA6, 3-amino-6-chloro-5-((4-chlorobenzyl)amino)-N-(4-(methyl(6-phenylhexyl)amino)butyl)pyrazine-2-carboxamide]
IC50 (HTC116 Cell Line): 3.6 µM | IC50 (PANC-1 Cell Line): 5.9 µM | IC50 (PANC-1 Cell Line; Homo sapiens, PANC-1, 72 h): < 6 µM | IC50 (MiaPaCa-2 Cell Line): 5.1 µM | IC50 (MiaPaCa-2 Cell Line; Homo sapiens, MIA PaCa-2, 72 h): < 6 µM | IC50 (HCT116 cells; [2]): 5 µM | IC50 (HCT116 cells; [5]): < 6 µM

CN(C)C(=N)N=C(N)N [Metformin, reference compound]
IC50 (HTC116 Cell Line): > 100 µM | IC50 (PANC-1 Cell Line; Homo sapiens, PANC-1, 72 h): > 5000 µM | IC50 (MiaPaCa-2 Cell Line; Homo sapiens, MIA PaCa-2, 72 h): > 5000 µM | dose response curve (HCT116 cells; HCT116, hypoxic conditions, concentrations up to 1 mM): failed to result in a recognizable dose response curve | IC50 (HCT116 cells; [5]): > 1000 µM | IC50 (HCT116 cells; Homo sapiens, HCT-116, 72 h, HCT116, normoxic conditions (20% O2)): 71.8 µM
